Patent EP4567035A1, “NOVEL COMPOUND AS HYPOXIA-INDUCIBLE FACTOR 1(HIF-1) INHIBITOR OR VASCULAR ENDOTHELIAL GROWTH FACTOR (VEGF) INHIBITOR, AND PHARMACEUTICAL COMPOSITION COMPRISING SAME” (Nextgen Bioscience Co., Ltd., priority 2022, dated 2024)
Where a name gives a salt, the structure may show the parent alone.

molecular target: T1, HIF-1α (Homo sapiens, UniProt Q16665); test: Analysis of HIF-1α protein expression (Western blot) in ARPE-19 cells under mixed hypoxic condition; format: cell-based; settings: mixed hypoxic condition (1% oxygen + CoCl2) for 1 hour, concentration range at which HIF-1α expression is reduced by 50% vs untreated control, read-out: IC50 HIF-1α Hypoxia (1 hour)
T1 construct: endogenous in cells; host or cells: ARPE-19 (ATCC CRL-2302)
T1 sequence (Q16665 whole entry): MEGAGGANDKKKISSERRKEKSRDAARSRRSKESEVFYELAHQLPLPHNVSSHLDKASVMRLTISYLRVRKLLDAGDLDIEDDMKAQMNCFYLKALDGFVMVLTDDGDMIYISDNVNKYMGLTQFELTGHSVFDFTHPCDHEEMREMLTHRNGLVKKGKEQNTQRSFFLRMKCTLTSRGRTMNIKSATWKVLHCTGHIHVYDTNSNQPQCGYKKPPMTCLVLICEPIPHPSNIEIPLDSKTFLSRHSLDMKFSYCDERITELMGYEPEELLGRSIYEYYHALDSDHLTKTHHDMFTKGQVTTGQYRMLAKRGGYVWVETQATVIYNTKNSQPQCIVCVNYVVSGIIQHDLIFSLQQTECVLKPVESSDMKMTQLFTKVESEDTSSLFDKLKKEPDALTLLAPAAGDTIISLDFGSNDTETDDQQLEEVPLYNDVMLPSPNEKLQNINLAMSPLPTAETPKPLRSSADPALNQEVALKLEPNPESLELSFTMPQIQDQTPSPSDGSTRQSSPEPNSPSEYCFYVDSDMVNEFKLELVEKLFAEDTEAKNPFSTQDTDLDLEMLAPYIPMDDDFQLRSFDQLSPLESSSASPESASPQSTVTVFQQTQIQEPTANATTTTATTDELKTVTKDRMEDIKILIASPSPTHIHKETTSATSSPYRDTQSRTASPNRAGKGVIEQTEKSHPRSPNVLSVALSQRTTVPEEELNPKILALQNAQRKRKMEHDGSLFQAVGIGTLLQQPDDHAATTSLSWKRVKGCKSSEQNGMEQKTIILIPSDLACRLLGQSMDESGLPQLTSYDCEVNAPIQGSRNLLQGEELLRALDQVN
Procedure: ARPE-19 cells (Human retinal pigment epithelial cells, ATCC CRL-2302) were cultured in DMEM/F12 (LM002-08, Welgene) medium containing 10% fetal bovine serum (FBS, 16000-044, Gibco) in an incubator at 37°C with 5% carbon dioxide. When the cells grew sufficiently, they were cultured in experimental culture dishes for protein isolation and medium supernatant acquisition.
Cells were detached from the culture dish using TrypLE™ Express (Gibco). After centrifugation at 1000 rpm for 3 minutes, the supernatant was removed. The cells were counted and seeded into new culture dishes. Normoxic conditions were maintained by culturing the cells in a 37°C incubator with 5% carbon dioxide, and hypoxic conditions were maintained by culturing the cells in a hypoxic incubator with 1% oxygen, 5% carbon dioxide, and 94% nitrogen gas.
In a disease of macular degeneration, hypoxia is a very important condition, and since the expression of downstream genes is regulated by HIF-1α, a transcription factor that is stabilized in hypoxic conditions, the following experiment was conducted to confirm this.
Mixed hypoxic condition was used for HIF-1α stability experiments, in which hypoxia was induced with 1% oxygen and the stability of HIF-1α was enhanced by treatment with cobalt chloride (CoCl2).
The compounds of each Example were diluted to 0.1 nM, 1 nM, 3 nM, 10 nM, 30 nM, 100 nM, 300 nM, 1 µM, and 10 µM in DMEM/F12 medium without fetal bovine serum, pretreated for 16 hours or 2 hours, and cultured for 1 hour or 24 hours in a mixed hypoxic condition. The cell medium was discarded, and protein lysates were obtained by rapidly treating with protein lysis buffer (RIPA Lysis and Extraction buffer, Thermo Fisher Scientific). LDS (4X Bolt ™ LDS Sample buffer) and reducing agent (10X Bolt ™ Sample Reducing Agent) were added together to the protein lysate, and heated at 70°C for 10 minutes. The lysate was separated by electrophoresis on a 4-12% Bis-Tris gel, transferred to a PVDF membrane, and blocked with 3% BSA (Albumin, Bovine, Fraction V, MPbio). The membrane was incubated overnight at 4°C with a mixture of anti-HIF-1α (ab179483, abcam) and anti-b-actin (MA515739, Invitrogen) antibodies at a ratio of 1:4000. The following day, the membrane was treated with a peroxidase-conjugated secondary antibody for 1 hour at room temperature, and the target protein was expressed using an ECL solution (Clarity ™ Western ECL substrate, Bio-rad) and quantified.
Based on the results of the expression level of HIF-1α in cells treated with compounds diluted from 10 µM to 0.1 nM, the concentration range of the compound at which the expression level of HIF-1α was reduced by 50% or less compared to the untreated control group was derived.

Structure (SMILES)	DC50
CC(C)N1CCC[C@H]1c1nc2ncnc(C(=O)NCc3cc(F)cc(-c4cnn(C)c4)c3)c2[nH]1 [Example 67, (S)-N-(3-fluoro-5-(1-methyl-1H-pyrazol-4-yl)benzyl)-8-(1-isopropylpyrrolidin-2-yl)-7H-purine-6-carboxamide]	1000 to 10000 nM
O=C(NCc1cc(F)cc(Br)c1)c1ncnc2nc(C3CCCC3)[nH]c12 [Example 14, N-(3-bromo-5-fluorobenzyl)-8-cyclopentyl-7H-purine-6-carboxamide]	100 to 1000 nM
Cn1cc(-c2cc(F)cc(CNC(=O)c3ncnc4nc(C5CCN(C(=O)OCc6ccccc6)CC5)[nH]c34)c2)cn1 [Example 69, Benzyl 4-(6-((3-fluoro-5-(1-methyl-1H-pyrazol-4-yl)benzyl)carbamoyl)-7H-purin-8-yl)piperidine-1-carboxylate]	100 to 1000 nM
Cn1cc(-c2cc(F)cc(CNC(=O)c3ncnc4nc([C@@H]5CCCN5)[nH]c34)c2)cn1 [Example 62, (S)-N-(3-fluoro-5-(1-methyl-1H-pyrazol-4-yl)benzyl)-8-(pyrrolidin-2-yl)-7H-purine-6-carboxamide hydrochloride]	1000 to 10000 nM
Cn1cc(-c2cc(F)cc(CNC(=O)c3ncnc4nc(C5CCN(C(=O)OCc6ccccc6)C5)[nH]c34)c2)cn1 (stereo not drawn) [Example 75, Benzyl 3-(6-((3-fluoro-5-(1-methyl-1H-pyrazol-4-yl)benzyl)carbamoyl)-7H-purin-8-yl)pyrrolidine-1-carboxylate]	100 to 1000 nM
Cn1cc(-c2cc(F)cc(CNC(=O)c3ncnc4nc([C@H]5CCCN5C(=O)OCc5ccccc5)[nH]c34)c2)cn1 [Example 64, Benzyl (R)-2-(6-((3-fluoro-5-(1-methyl-1H-pyrazol-4-yl)benzyl)carbamoyl)-7H-purin-8-yl)pyrrolidine-1-carboxylate]	1000 to 10000 nM
Cn1cc(-c2cc(F)cc(CNC(=O)c3ncnc4nc(C5CCNCC5)[nH]c34)c2)cn1 [Example 70, N-(3-fluoro-5-(1-methyl-1H-pyrazol-4-yl)benzyl)-8-(piperidin-4-yl)-7H-purine-6-carboxamide hydrochloride]	100 to 1000 nM
O=C(NCc1cc(F)cc(-c2cnn(-c3ccc(F)cc3)c2)c1)c1nc(Cl)nc2nc(C3CCCC3)[nH]c12 [Example 61, 2-Chloro-8-cyclopentyl-N-(3-fluoro-5-(1-(4-fluorophenyl)-1H-pyrazol-4-yl)benzyl)-7H-purine-6-carboxamide]	100 to 1000 nM
Cn1cc(-c2cc(F)cc(CNC(=O)c3ncnc4nc[nH]c34)c2)cn1 [Example 74, N-(3-fluoro-5-(1-methyl-1H-pyrazol-4-yl)benzyl)-7H-purine-6-carboxamide]	1000 to 10000 nM
Cn1cc(-c2cc(F)cc(CNC(=O)c3ncnc4nc(CN)[nH]c34)c2)cn1 [Example 73, 8-(Aminomethyl)-N-(3-fluoro-5-(1-methyl-1H-pyrazol-4-yl)benzyl)-7H-purine-6-carboxamide]	1000 to 10000 nM

More lines, now with the values ahead:

DC50	Structure (SMILES)
1000 to 10000 nM	Cn1cc(-c2cc(F)cc(CNC(=O)c3ncnc4nc([C@H]5CCCN5)[nH]c34)c2)cn1 [Example 65, (R)-N-(3-fluoro-5-(1-methyl-1H-pyrazol-4-yl)benzyl)-8-(pyrrolidin-2-yl)-7H-purine-6-carboxamide hydrochloride]
1000 to 10000 nM	CN1CCC(c2nc3ncnc(C(=O)NCc4cc(F)cc(-c5cnn(C)c5)c4)c3[nH]2)C1 (stereo not drawn) [Example 79, N-(3-fluoro-5-(1-methyl-1H-pyrazol-4-yl)benzyl)-8-(1-methylpyrrolidin-3-yl)-7H-purine-6-carboxamide]
1000 to 10000 nM	Cn1cc(-c2cc(F)cc(CNC(=O)c3ncnc4nc(CNC(=O)OCc5ccccc5)[nH]c34)c2)cn1 [Example 72, Benzyl ((6-((3-fluoro-5-(1-methyl-1H-pyrazol-4-yl)benzyl)carbamoyl)-7H-purin-8-yl)methyl)carbamate]
1000 to 10000 nM	CN1CCC(c2nc3ncnc(C(=O)NCc4cc(F)cc(-c5cnn(C)c5)c4)c3[nH]2)CC1 [Example 71, N-(3-fluoro-5-(1-methyl-1H-pyrazol-4-yl)benzyl)-8-(1-methylpiperidin-4-yl)-7H-purine-6-carboxamide]
100 to 1000 nM	Cn1cc(-c2cccc(C3(NC(=O)c4ncnc5nc(C6CCCC6)[nH]c45)CC3)c2)cn1 [Example 6, 8-Cyclopentyl-N-(1-(3-(1-methyl-1H-pyrazol-4-yl)phenyl)cyclopropyl)-7H-purine-6-carboxamide]
1000 to 10000 nM	Cn1cc(-c2cc(F)cc(CNC(=O)c3ncnc4nc(C5CCNC5)[nH]c34)c2)cn1 (stereo not drawn) [Example 76, N-(3-fluoro-5-(1-methyl-1H-pyrazol-4-yl)benzyl)-8-(pyrrolidin-3-yl)-7H-purine-6-carboxamide hydrochloride]
100 to 1000 nM	C[Si](C)(C)CCOCn1c(C2CCCC2)nc2ncnc(C(=O)NCc3cc(F)cc(-c4cnn(-c5cccc(C#N)c5)c4)c3)c21 [Example 22, N-(3-(1-(3-cyanophenyl)-1H-pyrazol-4-yl)-5-fluorobenzyl)-8-cyclopentyl-7-((2-(trimethylsilyl)ethoxy)methyl)-7H-purine-6-carboxamide]
100 to 1000 nM	Cn1c(C2CCCC2)nc2ncnc(C(=O)NCc3cc(F)cc(-c4cnn(-c5ccc(F)cc5)c4)c3)c21 [Example 55, 8-Cyclopentyl-N-(3-fluoro-5-(1-(4-fluorophenyl)-1H-pyrazol-4-yl)benzyl)-7-methyl-7H-purine-6-carboxamide]
1000 to 10000 nM	CN1CCC[C@@H]1c1nc2ncnc(C(=O)NCc3cccc(F)c3)c2[nH]1 [Example 68, (R)-N-(3-fluorobenzyl)-8-(1-methylpyrrolidin-2-yl)-7H-purine-6-carboxamide]

same assay, conditions: values marked * in the table, mixed hypoxic condition (1% oxygen + CoCl2) for 24 hours, concentration range at which HIF-1α expression is reduced by 50% vs untreated control, read-out: IC50 HIF-1α, Hypoxia(24h)

Structure (SMILES)	DC50
C[C@H](NC(=O)c1ncnc2nc(C3CCCC3)[nH]c12)c1cccc(-c2cnn(-c3ccc(F)cc3)c2)c1 [Example 91, (S)-8-cyclopentyl-N-(1-(3-(1-(4-fluorophenyl)-1H-pyrazol-4-yl)phenyl)ethyl)-7H-purine-6-carboxamide]	1000 to 10000 nM
O=C(NCCc1cccc(-c2cnn(-c3ccc(F)cc3)c2)c1)c1ncnc2nc(C3CCCC3)[nH]c12 [Example 94, 8-Cyclopentyl-N-(3-(1-(4-fluorophenyl)-1H-pyrazol-4-yl)phenethyl)-7H-purine-6-carboxamide]	100 to 1000 nM

The remaining lines, values ahead:

DC50	Structure (SMILES)
100 to 1000 nM	O=C(NCc1cc(F)cc(-c2cnn(-c3ccc(F)cc3)c2)c1)c1ncnc2nc(C3CCOC3)[nH]c12 (stereo not drawn) [Example 89, N-(3-fluoro-5-(1-(4-fluorophenyl)-1H-pyrazol-4-yl)benzyl)-8-(tetrahydrofuran-3-yl)-7H-purine-6-carboxamide]
100 to 1000 nM	C[C@@H](NC(=O)c1ncnc2nc(C3CCCC3)[nH]c12)c1cccc(-c2cnn(-c3ccc(F)cc3)c2)c1 [Example 90, (R)-8-cyclopentyl-N-(1-(3-(1-(4-fluorophenyl)-1H-pyrazol-4-yl)phenyl)ethyl)-7H-purine-6-carboxamide]
100 to 1000 nM	O=C(NCc1ccc(F)c(-c2cnn(-c3ccc(F)cc3)c2)c1)c1ncnc2nc(C3CCCC3)[nH]c12 [Example 96, 8-Cyclopentyl-N-(4-fluoro-3-(1-(4-fluorophenyl)-1H-pyrazol-4-yl)benzyl)-7H-purine-6-carboxamide]
